Literature values as cited in patent US20120177733A1 (priority 2005, published 2012).

Legend:
[1] = not given; remark: listed apart in the source

| SMILES | absolute (oral) bioavailability | solubility in water [1] | absolute oral bioavailability, wide range |
| --- | --- | --- | --- |
| CCOC(=O)C1=C(COCCN)NC(C)=C(C(=O)OC)C1c1ccccc1Cl (stereo not shown) [Amlodipine besylate, 3-ethyl-5-methyl-2(2-aminoethoxymethyl)-4-(2-chlrorophenyl)-1,4-dihydro-6-methyl-3,5-pyridinedicarboxylate benzenesulphonate] | 64-90% | slightly soluble | – |
| CCCCC(=O)N(Cc1ccc(-c2ccccc2-c2nnn[nH]2)cc1)[C@H](C(=O)O)C(C)C [valsartan, (S)—N-valeryl-N-{[2′-(1H-tetrazole-5-yl)-biphenyl-4-yl]-methyl}-valine] | about 25% | – | 10-35% |
